Here are results for seven molecules from patent US20250197671A1, “IRRADIATION-CROSSLINKABLE SILICONE COMPOSITION COMPRISING PT(OCTANE-2,4-DIONE)2 AS A CATALYST” (ELKEM SILICONES FRANCE SAS, priority 2022, published 2025).

Where two headings read alike, the source gives them in different places.

Data set [1] is described as follows: Solubility of the catalyst in hexamethyldisiloxane (HMDSO). Type of data set: physicochemical. The source says: Continue additions until obtaining a clear medium, without observing precipitate at the end of stirring.
A short description of data set [2]: Solubility / appearance of catalyst in the silicone composition. The settings on record: Photo-DSC formulation, organopolysiloxane A + B, 10 ppm Pt (Example 3).
The nature of data set [3]: Photo-DSC of silicone composition (time and value of thermal peak). Conditions: 365 nm, 14.4 mW/cm^2, 10 ppm Pt, N2 purge.
The nature of data set [4]: Crosslinking time of silicone composition under UV LED irradiation (catalyst activity). Conditions: UV LED 365 nm, 10 ppm Pt, SiH/Si(vinyl)=2:1, bulk setting time. Here is the method: Irradiation: UV LED lamp with a wavelength of 365 nm.
The crosslinking time is measured. It corresponds to the bulk setting time of the system (the bar magnet can no longer stir the system).

Data set [5] in a line: Stability of the catalysed silicone solution without irradiation. The class given is physicochemical. The settings on record: with organopolysiloxanes A and B, 10 ppm Pt. The procedure: A solution comprising a catalyst C1 or C5, together with organopolysiloxanes A and B was prepared according to example 2 (concentration in metal Pt of 10 ppm).
The stability of the solutions was then determined.

In data set [6] the test system is Salmonella typhimurium TA 1535, TA 1537, TA 98, TA 100. The data set can be described thus: Ames test (OECD test 471, Bacterial Reverse Mutation Test). The settings on record: with or without metabolic activation; 5000, 1500, 150 and 50 μg/plate. Type of data set: cell-based. The procedure: (§1) In fact, this compound was analyzed according to the Ames test: the Ames test is a widely used method which uses bacteria for verifying whether a given chemical product may cause DNA mutations in the tested organism.
(§2) Toxicity test (Ames Test, according to the OECD guidelines for chemical product tests-test 471: Bacterial Reverse Mutation Test): Solutions were prepared with Pt(octane-2,4-dione)2.
(In general: The Ames test detects mutagens through reverse mutation in bacteria.)

Data set [7] has as its system Escherichia coli WP2 (uvrA-) (pKM 101). Described as above. Type of data set: cell-based. The settings on record: with or without metabolic activation; 5000, 1500, 150 and 50 μg/plate. Here is the method: as §1, §2
The conditions of data set [8]: H361-CMR Reproductive Toxicity Category 2; cited from earlier work.

`CCC(=O)C=C(CC)[O][Pt][O]C(=CC(=O)CC)CC` [Catalyst C3, Pt(heptane-3,5-dione)2]: the Solubility in data set [1] came to 2500 ppm Pt. Also, the Appearance entry in data set [2] was “Clear yellow”. In data set [3], the “Time to arrive at the thermal peak” value came out at 240 s and the “Value of the thermal peak (mW/s)” value is recorded as 0.53 mW/s.
Consider `CCC(=O)C=C(C)[O][Pt][O]C(C)=CC(=O)CC` [Catalyst C4, Pt(hexane-2,4-dione)2], for which, in data set [1] (in hexamethyldisiloxane (HMDSO) at 20° C.), the Solubility came to 500 ppm Pt. Also, in data set [2], the Appearance entry is listed as “Hazy yellow”. Also, in data set [3], the “Time to arrive at the thermal peak” value is 235 s and the “Value of the thermal peak (mW/s)” value is given as 0.47 mW/s.
For trans Pt(octane-2,4-dione)2 [C1 Trans], the Appearance entry in data set [2] is recorded as “Soluble clear”. Besides, in data set [3], the “Time to arrive at the thermal peak” value was 140 s and the “Value of the thermal peak (mW/s)” value came out at 0.78 mW/s.
“Pt(octane-2,4-dione)2 [C1 Trans:cis ratio = 11:89]” had a Crosslinking time in data set [4] of 1 min.
For Pt(octane-2,4-dione)2 [Catalyst C1], in data set [1], the Solubility is on record as 7000 ppm Pt. Besides, the results for the “time solution remained stable” value in data set [5] (exposed to ambient light) and in data set [5] (protected from light) were “over 7 hours” and “over 20 days”, respectively. Besides, the “mutagenic modification (Ames test)” value in data set [6] and in data set [7] was “did not induce any mutagenic modification” in each case.
As to `CC(=O)/C=C(/C)O.CC(=O)/C=C(/C)O.[Pt]` [Catalyst C2, Pt(acac)2], in data set [3], the “Time to arrive at the thermal peak” value worked out at 140 s and the “Value of the thermal peak (mW/s)” value amounted to 0.65 mW/s. The reproductive toxicity classification result in data set [8] was “suspected of damaging fertility or the unborn child”.
For the molecule cis-Pt(octane-2,4-dione)2 [C1 Cis], in data set [2], the Appearance result is on record as “Soluble clear”. In data set [3], the “Time to arrive at the thermal peak” value is given as 140 s and the “Value of the thermal peak (mW/s)” value is given as 0.85 mW/s.
